Laboratory results taken from patent US20010049373A1, “Materials and methods for killing nematodes and nematode eggs” (priority 2000, published 2001).

Legend:
C. elegans = C. elegans nematode activity assay, 2-fold dilutions from 140 μM, visual evaluation at Day 4 (Example 3); format: in vivo; design: key: Dead: only stiff L1s (no movement); Dead (L4): worms are dead, but at a later larval stage; majority of worms are L1 (based on size); majority of worms are L2 (based on size); majority of worms are L3 (based on size); majority of worms are L4 (based on size); AD: majority of worms are adult; #AD: 5 adult worms or less; B!: sterile (0-25 progeny); B: low broodsize (25-100 progeny); ˜B: moderate broodsize (100-250 progeny); <: reduced broodsize (250-500 progeny); OK: no effect (˜1000+ progeny)
[1] = test system: root-knot nematode, Meloidogyne incognita; conditions: cited from earlier work
tomatoes or cucumbers = conditions: rates of up to 10 kg/ha; cited from earlier work
[2] = test system: Colorado potato beetle, potato tuberworm, beet armyworm, diamondback moth, gypsy moth, and the European corn borer; conditions: cited from earlier work

Row | Compound | visual evaluation of viability (C. elegans; 1.09 μM) | visual evaluation of viability (C. elegans; 2.2 μM) | visual evaluation of viability (C. elegans; 4.4 μM) | visual evaluation of viability (C. elegans; 8.8 μM) | visual evaluation of viability (C. elegans; 17.5 μM) | visual evaluation of viability (C. elegans; 35 μM) | visual evaluation of viability (C. elegans; 140 μM) | visual evaluation of viability (C. elegans; 70 μM) | activity against the root-knot nematode ([1]; Meloidogyne incognita) | potency relative to commercial contact nematicides ([1]; incorporated into soil at 0.16-0.25 kg/ha) | toxicity to tomatoes or cucumbers (tomatoes or cucumbers) | effect on insect pests [2]
1 | O=C(NCC1CCN(C(=O)NCCC(c2ccccc2)c2ccccc2)CC1)c1cc(F)c(F)cc1F [AKC 116] | OK (no effect (˜1000+ progeny)) | OK (no effect (˜1000+ progeny)) | OK (no effect (˜1000+ progeny)) | B (low broodsize (25-100 progeny)) | B! (sterile (0-25 progeny)) | L3 | – | – | – | – | – | –
2 | O=C(NCC1CCN(C(=O)NCCC(c2ccccc2)c2ccccc2)CC1)c1ccc(F)cc1F [AKC 117] | OK (no effect (˜1000+ progeny)) | OK (no effect (˜1000+ progeny)) | < (reduced broodsize (250-500 progeny)) | B (low broodsize (25-100 progeny)) | B! (sterile (0-25 progeny)) | L3 | – | – | – | – | – | –
3 | O=C(NCC1CCN(C(=O)NCCC(c2ccccc2)c2ccccc2)CC1)c1cc(F)cc(F)c1 [AKC 118] | OK (no effect (˜1000+ progeny)) | OK (no effect (˜1000+ progeny)) | ˜B (moderate broodsize (100-250 progeny)) | B (low broodsize (25-100 progeny)) | L4/AD/B! | L3 | L2 | – | – | – | – | –
4 | NCc1ccc(-c2ccccc2)cc1 [AKC 138] | OK (no effect (˜1000+ progeny)) | OK (no effect (˜1000+ progeny)) | OK (no effect (˜1000+ progeny)) | ˜B (moderate broodsize (100-250 progeny)) | L2 | L1 | L1 | L1 | – | – | – | –
5 | Cc1ccc2c(Cl)cc(Cl)c(O)c2n1 [AKC 141] | OK (no effect (˜1000+ progeny)) | OK (no effect (˜1000+ progeny)) | OK (no effect (˜1000+ progeny)) | OK (no effect (˜1000+ progeny)) | < (reduced broodsize (250-500 progeny)) | L1 | L1 | L1 | – | – | – | –
6 | CC[C@H](C)[C@H]1O[C@]2(CC(O)[C@@H]1C)C[C@@H]1C[C@@H](C/C=C(\C)[C@@H](OC3CC(OC)C(OC4CC(OC)C(O)C(C)O4)C(C)O3)[C@@H](C)/C=C/C=C3\CO[C@@H]4[C@H](O)C(C)=C[C@@H](C(=O)O1)[C@]34O)O2 (stereo partly drawn) [Avermectin B2a] | – | – | – | – | – | – | – | – | active | 10-30 times | not toxic | –
7 | Avermectin B1 | – | – | – | – | – | – | – | – | – | – | – | effective
